Counter-ions that a name gives are not always drawn. Like-named read-outs stand apart in the source and are kept apart here.
Key:
[1] = biological target: T1, GST P1-1 (Homo sapiens, UniProt P09211); assay: High-throughput GST P1-1 inhibition assay (384-well screen, CDNB/GSH); format: biochemical; conditions: compound 10 μM; score 0 = negative control (DMSO), 1 = positive control (EA 50 μM); average of duplicate
T1 construct: purchased Sigma-Aldrich
Description: (§1) Each drug compound was added to the respective well at a volume of 80 nL of 10 mM stock solution in DMSO, yielding a final compound concentration of 10 μM and a final DMSO concentration of 0.1%. Each plate’s first and last two columns were used as negative (no compound added – 80 nL per well of DMSO) and positive (80 nL of EA added with a final concentration of 50 μM) controls, respectively. The Gyger Certus Flex dispenser was set up using a freshly prepared 1 mM of GSH and 20 nM of GST P1-1, pH 7.4, in one syringe and 8 mM CDNB solution in pure ethanol in the other syringe. Into each well 80 μL of GST-GSH solution was dispensed and incubated at 25°C for 20 minutes before the reaction was initiated by the addition of 4 μL of CDNB solution. The plates were incubated for 2 h in the dark at 25°C and then the absorbance was of each well recorded on a BioTek Synergy NEO HTS multimode plate reader (Agilent®) at a wavelength of 340 nm.
The z’factor was calculated for each plate according to Zhang et al.. The Z-factor is a dimensionless, simple statistical characteristic for each HTS assay. This provides a valuable tool for the comparison and assessment of the quality of assays, and can be utilized in assay optimization and validation. For each plate, the concentration of product was normalized by assigning a score of 0 (0%) to the negative control (average of maximal concentration of product measured in the presence of enzyme without any inhibitor) and a score of 1 (100%) was assigned to the positive control (average minimal concentration of product measured in the presence of enzyme with the reference inhibitor, i.e., EA). The experiment was performed in duplicate and the score for each drug compound was calculated as an average ± standard deviation. […] An internal laboratory information management system (LIMS) was used for basic data processing, management, visualization, and statistical hit validation.

[2] = biological target: T1, GST P1-1; assay: Determination of IC50 for GST P1-1 enzyme (dose-response / reconfirmation assay); format: biochemical
Description: as §1
The IC50 of the GST P1-1 enzyme was determined for the 80 drug compounds with the highest score in the GST P1-1 screening assay. The assay conditions were used for the screening assay and each drug compound was tested at 8 different concentrations (μM) starting at 30 µM final assay concentration with a half-log dilution and 2 replicates per concentration.

[3] = system: MCF-7 cells; assay: MTT cytotoxicity assay, MCF-7; format: cell-based, human; conditions: Homo sapiens, MCF7
Description: (§2) L929, MCF-7, and MDA-MB-231 cell lines were cultured in DMEM GlutaMAX media containing 10% heat-inactivated FBS and 1% (v/v) penicillin-streptomycin at 37°C and CO2 (5%). Cytotoxicity was determined using a 3-(4,5-dimethyl 2-thiazolyl)-2,5-diphenyl-2H-tetrazolium bromide (MTT) assay. 100 μL aliquots and approximately 50’000 cells/well were added to each well of flat-bottomed 96-well plates and incubated for 24 h in a humidified chamber at 37°C under saturated air with a 5% CO2 atmosphere. Stock solutions of 10 mM drug compounds were prepared in DMSO and were sequentially diluted with the cell culture buffer to give a final DMSO concentration of 0.5%. The solutions were added to the 96-well plates in 100 μL aliquots and 100 μL of buffer was added as a control to give a final drug compound concentration range of 0 − 100 μM. The plates were incubated for a further 72 h under the same conditions as before. MTT (10 μL, 5 mg/mL in Dulbecco’s phosphate-buffered saline) was added to each well and the plates were incubated for a further 3 h under the same conditions as before. The culture medium was aspirated from each well and the purple formazan crystals, formed by the mitochondrial dehydrogenase activity of vital cells, were dissolved in 100 μL DMSO. The absorbance of the resulting solutions was measured at 570 and 630 nm using a SpectraMax M5e multimode microplate reader and SoftMax Pro software, version 6.2.2. As the absorbance is directly proportional to the number of surviving cells, the percentage of surviving cells was calculated from the absorbance of wells relative to the control. The reported IC50 values are based on the mean from four independent experiments, each comprising three replicates per concentration.

[4] = system: MDA-MB-231 cells; assay: MTT cytotoxicity assay, MDA-MB-231; format: cell-based, human; conditions: Homo sapiens, MDA-MB-231
Description: as §2

[5] = system: L929 cells; assay: MTT cytotoxicity assay, L929; format: cell-based, mouse; conditions: for selectivity towards the breast cancer cell lines: MCF-7 and MDA-MB-231 versus non-tumorigenic L929, 72 h MTT; for IC50: Mus musculus, L929, MTT, 72 h incubation, read-out: IC50 (average ± standard deviation) L929
Description: as §2, with “Cytotoxicity” for “L929, MCF-7, and MDA-MB-231 cell lines were cultured in DMEM GlutaMAX media containing 10% heat-inactivated FBS and 1% (v/v) penicillin-streptomycin at 37°C and CO2 (5%). Cytotoxicity”, “Stock solutions of 10 mM drug compounds were prepared in DMSO and were sequentially diluted with the cell culture buffer to give a final DMSO concentration of 0.5%. The solutions were added to the 96-well plates in 100 μL aliquots and 100 μL of buffer was added as a control to give a final drug compound concentration range of 0 − 100 μM.” left out

[6] = biological target: T1, GST P1-1; assay: Determination of inhibitor binding mechanism (kinetic GST P1-1 activity assay); format: biochemical; conditions: from Km and Vmax versus reaction without inhibitor
Description: The GST P1-1 concentration used in the assays was 0.02 U mL^-1.
1 mM GSH final concentration was used. The GST P1-1 was pre-incubated with the GSH for 20 minutes at room temperature before the addition of 12.5 μL of 4 mM solution of CDNB. The reaction rate was recorded against time using UV/VIS spectrophotometer (SpectraMax M5e from Molecular devices) at […].
The drug compounds’ inhibition mechanism was investigated using the kinetic GST P1-1 activity assay. Concentrations of CDNB ranged from 0–40 mM with the drug solution at a constant concentration of 5 μM. Experiments were performed in duplicate.
The Michaelis-Menten constant, Km, and […] Vmax were calculated using GraphPad Prism 9 software. To identify the type of inhibition the Michaelis-Menten equation was applied (Eq. 1): […]
where v0 is the initial velocity of the reaction, Vmax is the maximum velocity achieved by the reaction at maximum concentrations of substrate, [S] is the concentration of substrate, and Km is the substrate concentration at which the reaction velocity is half of the Vmax (Michaelis-Menten constant). The Michaelis-Menten equation predicts a hyperbolic relationship between initial velocity and substrate concentration, describing the kinetic behavior of enzymes. Evaluating the differences in Km and Vmax compared with the reaction without an inhibitor allows the competition type of an inhibitor to be identified. Competitive inhibitors present an increase in the Km and with Vmax unaffected. Non-competitive inhibitors present a […] Vmax.

[7] = Table 2, rounded values, read-out: IC50 GSTP1 enzymatic reaction
[8] = MTT, 72 h incubation, read-out: IC50 (average ± standard deviation) MCF-7
[9] = compound alone, read-out: Concentration IC50 isolated (MCF-7 cell line)
[10] = MTT, 72 h incubation, read-out: IC50 (average ± standard deviation) MDA-MB-231
[11] = compound alone, read-out: Concentration IC50 isolated (MDA-MB-231 cell line)

T1 sequence (P09211 2-210 limits assumed): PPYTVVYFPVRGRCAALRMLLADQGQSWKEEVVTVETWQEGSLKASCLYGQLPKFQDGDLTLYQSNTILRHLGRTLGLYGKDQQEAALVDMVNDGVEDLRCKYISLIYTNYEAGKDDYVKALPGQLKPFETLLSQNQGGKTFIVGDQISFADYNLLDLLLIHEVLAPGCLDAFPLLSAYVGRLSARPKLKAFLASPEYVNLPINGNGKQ

CCc1ccc(/C=C2/SC(=S)NC2=O)cc1 [10058-F4]
Score [1]: 0.731 | IC50 [2, 7]: 2.8 µM | Hill Slope (dose-response curve) ([2]; reconfirmation assay): 1.37 | IC50 ([2]; reconfirmation assay, Table S2, read-out: IC50 GSTP1): 2.75 µM | IC50 [3, 8]: 14 ± 2 µM | IC50 [3, 9]: 14 µM | IC50 [4, 10]: 15 ± 4 µM | IC50 [4, 11]: 15 µM | selectivity towards the breast cancer cell lines [5]: highly selective | IC50 [5]: > 100 µM | Inhibition mechanism [6]: Non-competitive

C[C@H]1COC2=C1C(=O)C(=O)c1c2ccc2c1CCCC2(C)C [Cryptotanshinone 97.0%, Cryptotanshinone]
Score [1]: 1.037 | IC50 [2, 7]: 8.9 µM | Hill Slope (dose-response curve) ([2]; reconfirmation assay): 0.85 | IC50 [3, 8]: 0.29 ± 0.04 µM | IC50 [3, 9]: 0.29 µM | IC50 [4, 10]: 2.9 ± 0.3 µM | IC50 [4, 11]: 2.9 µM | selectivity towards the breast cancer cell lines [5]: reasonable degree of selectivity | IC50 [5]: 4.4 ± 0.3 µM | Inhibition mechanism [6]: Non-competitive

O=C1C(=Cc2cccnc2)C(=O)c2ccccc21 [PRT 4165]
Score [1]: 0.890 | IC50 [2, 7]: 1.3 µM | Hill Slope (dose-response curve) ([2]; reconfirmation assay): 1.2 | IC50 [3, 8]: 59 ± 7 µM | IC50 [3, 9]: 59 µM | IC50 [4, 10]: 27 ± 6 µM | IC50 [4, 11]: 27 µM | selectivity towards the breast cancer cell lines [5]: reasonable degree of selectivity | IC50 [5]: > 100 µM | Inhibition mechanism [6]: Non-competitive

CC(C)N(CCC(=O)c1ccc2ccccc2c1)Cc1ccccc1 [ZM 39923 (hydrochloride)]
Score [1]: 0.788 | IC50 [2, 7]: 1.5 µM | Hill Slope (dose-response curve) ([2]; reconfirmation assay): 1.56 | IC50 [3, 8]: 4.3 ± 0.1 µM | IC50 [3, 9]: 4.3 µM | IC50 [4, 10]: 2.6 ± 0.1 µM | IC50 [4, 11]: 2.6 µM | selectivity towards the breast cancer cell lines [5]: reasonable degree of selectivity | IC50 [5]: 8.2 ± 0.6 µM | Inhibition mechanism [6]: Competitive

Reference: publication PMC12289066, “Identification of glutathione transferase (GST P1) inhibitors via a high-throughput screening assay and implications as alternative treatment options for breast cancers” (PLOS One, 2025)
